{"source": "patent US20260285872A1", "about": "“COMPOUNDS AND METHODS FOR DEGRADING GSPT1” (priority 2023, published 2026)", "note": "pIC50: −log10 of the molar value."}
{"tested_on": "NCI-H1155 cells", "assay": "NSCLC cell viability, CellTiter-Glo, NCI-H1155 cells", "assay_type": "cell-based", "conditions": "Homo sapiens; NCI-H1155 cells, CellTiter-Glo, 72 hours of treatment; read-out: Cell viability classification (NCI-H1155)"}
{"smiles": "O=C1CCC(c2nc3ccc(C(=O)N4CCc5cc(Cl)ccc5C4)cc3o2)C(=O)N1", "note": "(centres unmarked) [Example 171, 3-(6-(6-chloro-1,2,3,4-tetrahydroisoquinoline-2-carbonyl)benzo[d]oxazol-2-yl)piperidine-2,6-dione]", "pIC50": "6.00 to 7.00"}
{"smiles": "N#Cc1ccccc1C1CC2(C1)CN(C(=O)c1ccc3c(c1)CN(C1CCC(=O)NC1=O)C3=O)C2", "note": "(centres unmarked) [Example 239, 2-(2-(2-(2,6-dioxopiperidin-3-yl)-1-oxoisoindoline-5-carbonyl)-2-azaspiro[3.3]heptan-6-yl)benzonitrile]", "pIC50": "6.00 to 7.00"}
{"smiles": "O=C1CCC(N2Cc3cc(C(=O)N4CC5(CNC5)c5ccc(F)cc54)ccc3C2=O)C(=O)N1", "note": "(centres unmarked) [Example 154, 3-(5-(6′-fluorospiro[azetidine-3,3′-indoline]-1′-carbonyl)-1-oxoisoindolin-2-yl)piperidine-2,6-dione]", "pIC50": "< 6.00"}
{"smiles": "O=C1CCC(N2Cc3cc(C(=O)N4CC5(CC5)c5ccc(F)cc54)ccc3C2=O)C(=O)N1", "note": "(centres unmarked) [Example 105, 3-(5-(6′-fluorospiro[cyclopropane-1,3′-indoline]-1′-carbonyl)-1-oxoisoindolin-2-yl)piperidine-2,6-dione]", "pIC50": "> 8.00"}
{"smiles": "O=C1CCN(c2ccc3cc(COC(=O)Nc4cc(OC(F)(F)F)ccc4F)ccc3c2)C(=O)N1", "note": "[Example 143, (6-(2,4-dioxotetrahydropyrimidin-1(2H)-yl)naphthalen-2-yl)methyl(2-fluoro-5-(trifluoromethoxy)phenyl)carbamate]", "pIC50": "6.00 to 7.00"}
{"smiles": "O=C1CCC(c2nc3ccc(C(=O)N4CCc5ccccc5C4)cc3o2)C(=O)N1", "note": "(centres unmarked) [Example 146, 3-(6-(1,2,3,4-tetrahydroisoquinoline-2-carbonyl)benzo[d]oxazol-2-yl)piperidine-2,6-dione]", "pIC50": "6.00 to 7.00"}
{"smiles": "O=C1CCC(N2Cc3cc(C(=O)N4CC5(CCC(C(F)(F)F)CC5)C4)ccc3C2=O)C(=O)N1", "note": "(centres unmarked) [Example 251, 3-(1-oxo-5-(7-(trifluoromethyl)-2-azaspiro[3.5]nonane-2-carbonyl)isoindolin-2-yl)piperidine-2,6-dione]", "pIC50": "6.00 to 7.00"}
{"smiles": "O=C1CCC(N2Cc3cc(C(=O)N4Cc5cc(Cl)cc(F)c5C4)ccc3C2=O)C(=O)N1", "note": "(centres unmarked) [Example 148, 3-(5-(6-chloro-4-fluoroisoindoline-2-carbonyl)-1-oxoisoindolin-2-yl)piperidine-2,6-dione]", "pIC50": "7.00 to 8.00"}
{"smiles": "O=C1CCC(c2nc3ccc(C(=O)N4Cc5c(F)ccc(F)c5C4)cc3o2)C(=O)N1", "note": "(centres unmarked) [Example 177, 3-(6-(4,7-difluoroisoindoline-2-carbonyl)benzo[d]oxazol-2-yl)piperidine-2,6-dione]", "pIC50": "6.00 to 7.00"}
{"smiles": "COc1ccc(C2CC3(C2)CN(C(=O)c2ccc4c(c2)CN(C2CCC(=O)NC2=O)C4=O)C3)cc1", "note": "(centres unmarked) [Example 233, 3-(5-(6-(4-methoxyphenyl)-2-azaspiro[3.3]heptane-2-carbonyl)-1-oxoisoindolin-2-yl)piperidine-2,6-dione]", "pIC50": "< 6.00"}
{"smiles": "O=C1CCC(N2Cc3cc(C(=O)N4CCC5(CCC(F)(F)CC5)C4)ccc3C2=O)C(=O)N1", "note": "(centres unmarked) [Example 190, 3-(5-(8,8-difluoro-2-azaspiro[4.5]decane-2-carbonyl)-1-oxoisoindolin-2-yl)piperidine-2,6-dione]", "pIC50": "< 6.00"}
{"smiles": "O=C1CCC(c2nc3cc(COC(=O)NC4CC5(C4)CC(F)(F)C5)ccc3o2)C(=O)N1", "note": "(centres unmarked) [Example 253, (2-(2,6-dioxopiperidin-3-yl)benzo[d]oxazol-5-yl)methyl (6,6-difluorospiro[3.3]heptan-2-yl)carbamate]", "pIC50": "< 6.00"}
{"smiles": "O=C1CCC(c2nc3ccc(C(=O)N4CC5(CCC(F)(F)CC5)C4)cc3o2)C(=O)N1", "note": "(centres unmarked) [Example 220, 3-(6-(7,7-difluoro-2-azaspiro[3.5]nonane-2-carbonyl)benzo[d]oxazol-2-yl)piperidine-2,6-dione]", "pIC50": "< 6.00"}
{"smiles": "O=C1CCC(N2Cc3cc(C(=O)N4CC5(CCOC5)C4)ccc3C2=O)C(=O)N1", "note": "(centres unmarked) [Example 187, 3-(1-oxo-5-(6-oxa-2-azaspiro[3.4]octane-2-carbonyl)isoindolin-2-yl)piperidine-2,6-dione]", "pIC50": "< 6.00"}
{"smiles": "O=C1CCC(N2Cc3cc(C(=O)N4CC5(CC(c6ccc(F)cc6F)C5)C4)ccc3C2=O)C(=O)N1", "note": "(centres unmarked) [Example 229, 3-(5-(6-(2,4-difluorophenyl)-2-azaspiro[3.3]heptane-2-carbonyl)-1-oxoisoindolin-2-yl)piperidine-2,6-dione]", "pIC50": "7.00 to 8.00"}
{"smiles": "O=C1CCC(N2Cc3cc(C(=O)N4CCC5(C=C(c6ccc(F)cc6)C5)C4)ccc3C2=O)C(=O)N1", "note": "(centres unmarked) [Example 247, 3-(5-(2-(4-fluorophenyl)-6-azaspiro[3.4]oct-1-ene-6-carbonyl)-1-oxoisoindolin-2-yl)piperidine-2,6-dione]", "pIC50": "7.00 to 8.00"}
{"smiles": "C[C@@H]1c2c(F)cccc2CN1C(=O)c1ccc2nc(C3CCC(=O)NC3=O)oc2c1", "note": "(stereo partly drawn) [Example 159, 3-(6-((R)-7-fluoro-1-methylisoindoline-2-carbonyl)benzo[d]oxazol-2-yl)piperidine-2,6-dione]", "pIC50": "< 6.00"}
{"smiles": "O=C1CCC(N2Cc3cc(C(=O)N4CC5(COC5)C4)ccc3C2=O)C(=O)N1", "note": "(centres unmarked) [Example 188, 3-(1-oxo-5-(2-oxa-6-azaspiro[3.3]heptane-6-carbonyl)isoindolin-2-yl)piperidine-2,6-dione]", "pIC50": "< 6.00"}
{"smiles": "O=C1CCC(N2Cc3cc(C(=O)NC4CC5(C=C(c6ccc(F)c(F)c6)C5)C4)ccc3C2=O)C(=O)N1", "note": "(centres unmarked) [Example 215, N-(6-(3,4-difluorophenyl)spiro[3.3]hept-5-en-2-yl)-2-(2,6-dioxopiperidin-3-yl)-1-oxoisoindoline-5-carboxamide]", "pIC50": "6.00 to 7.00"}
{"smiles": "O=C1CCC(c2nc3cc(COC(=O)N4CC5(C4)CC(F)(F)C5)ccc3o2)C(=O)N1", "note": "(centres unmarked) [Example 262, (2-(2,6-dioxopiperidin-3-yl)benzo[d]oxazol-5-yl)methyl 6,6-difluoro-2-azaspiro[3.3]heptane-2-carboxylate]", "pIC50": "< 6.00"}
{"smiles": "O=C1CCC(N2Cc3cc(C(=O)N4CCC5(CC(c6cccc(F)c6)C5)C4)ccc3C2=O)C(=O)N1", "note": "(centres unmarked) [Example 250, 3-(5-(2-(3-fluorophenyl)-6-azaspiro[3.4]octane-6-carbonyl)-1-oxoisoindolin-2-yl)piperidine-2,6-dione]", "pIC50": "6.00 to 7.00"}
{"smiles": "O=C1CCC(c2nc3ccc(C(=O)N4CC5(CCC(C(F)(F)F)C5)C4)cc3o2)C(=O)N1", "note": "(centres unmarked) [Example 252, 3-(6-(6-(trifluoromethyl)-2-azaspiro[3.4]octane-2-carbonyl)benzo[d]oxazol-2-yl)piperidine-2,6-dione]", "pIC50": "< 6.00"}
{"smiles": "N#Cc1ccc2c(c1F)CN(C(=O)c1ccc3c(c1)CN(C1CCC(=O)NC1=O)C3=O)C2", "note": "(centres unmarked) [Example 150, 2-(2-(2,6-dioxopiperidin-3-yl)-1-oxoisoindoline-5-carbonyl)-4-fluoroisoindoline-5-carbonitrile]", "pIC50": "6.00 to 7.00"}
{"smiles": "N#Cc1ccc(C2=CC3(C2)CN(C(=O)c2ccc4c(c2)CN(C2CCC(=O)NC2=O)C4=O)C3)cc1", "note": "(centres unmarked) [Example 242, 4-(2-(2-(2,6-dioxopiperidin-3-yl)-1-oxoisoindoline-5-carbonyl)-2-azaspiro[3.3]hept-5-en-6-yl)benzonitrile]", "pIC50": "7.00 to 8.00"}
{"smiles": "O=C1CCC(N2Cc3cc(C(=O)N4CC5(CC(C(F)(F)F)C5)C4)c(F)cc3C2=O)C(=O)N1", "note": "(centres unmarked) [Example 183, 3-(6-fluoro-1-oxo-5-(6-(trifluoromethyl)-2-azaspiro[3.3]heptane-2-carbonyl)isoindolin-2-yl)piperidine-2,6-dione]", "pIC50": "7.00 to 8.00"}
{"smiles": "COc1ccc(C2=CC3(C2)CN(C(=O)c2ccc4c(c2)CN(C2CCC(=O)NC2=O)C4=O)C3)cc1", "note": "(centres unmarked) [Example 237, 3-(5-(6-(4-methoxyphenyl)-2-azaspiro[3.3]hept-5-ene-2-carbonyl)-1-oxoisoindolin-2-yl)piperidine-2,6-dione]", "pIC50": "< 6.00"}
{"smiles": "O=C1CCC(N2Cc3cc(C(=O)N4CC5(CC(c6ccc(C(F)(F)F)c(F)c6)C5)C4)ccc3C2=O)C(=O)N1", "note": "(centres unmarked) [Example 245, 3-(5-(6-(3-fluoro-4-(trifluoromethyl)phenyl)-2-azaspiro[3.3]heptane-2-carbonyl)-1-oxoisoindolin-2-yl)piperidine-2,6-dione]", "pIC50": "7.00 to 8.00"}
{"smiles": "O=C1CCC(N2Cc3cc(C(=O)N4CCC5(C=C(c6cccc(F)c6)C5)C4)ccc3C2=O)C(=O)N1", "note": "(centres unmarked) [Example 249, 3-(5-(2-(3-fluorophenyl)-6-azaspiro[3.4]oct-1-ene-6-carbonyl)-1-oxoisoindolin-2-yl)piperidine-2,6-dione]", "pIC50": "7.00 to 8.00"}
{"smiles": "Cc1c(N2CCC(=O)NC2=O)ccc2ccc(C(=O)N3CCc4ccc(F)cc43)cc12", "note": "[Example 134, 1-(7-(6-fluoroindoline-1-carbonyl)-1-methylnaphthalen-2-yl)dihydropyrimidine-2,4(1H,3H)-dione]", "pIC50": "7.00 to 8.00"}
{"smiles": "O=C1CCC(c2nc3cc(COC(=O)Nc4ccc(OC(F)(F)F)cc4F)ccc3o2)C(=O)N1", "note": "(centres unmarked) [Example 223, (2-(2,6-dioxopiperidin-3-yl)benzo[d]oxazol-5-yl)methyl (2-fluoro-4-(trifluoromethoxy)phenyl)carbamate]", "pIC50": "6.00 to 7.00"}
{"smiles": "C[C@@H]1c2cccc(F)c2CN1C(=O)c1ccc2c(c1)CN(C1CCC(=O)NC1=O)C2=O", "note": "(stereo partly drawn) [Example 142, 3-(5-((R)-4-fluoro-1-methylisoindoline-2-carbonyl)-1-oxoisoindolin-2-yl)piperidine-2,6-dione]", "pIC50": "< 6.00"}
{"smiles": "O=C1CCC(N2Cc3cc(C(=O)N4CC5(CCC(C(F)(F)F)C5)C4)ccc3C2=O)C(=O)N1", "note": "(centres unmarked) [Example 222, 3-(1-oxo-5-(6-(trifluoromethyl)-2-azaspiro[3.4]octane-2-carbonyl)isoindolin-2-yl)piperidine-2,6-dione]", "pIC50": "7.00 to 8.00"}
{"smiles": "O=C1CCC(N2Cc3cc(C(=O)NC4CC5(C=C(c6ccc(C(F)(F)F)cc6)C5)C4)ccc3C2=O)C(=O)N1", "note": "(centres unmarked) [Example 256, 2-(2,6-dioxopiperidin-3-yl)-1-oxo-N-(6-(4-(trifluoromethyl)phenyl)spiro[3.3]hept-5-en-2-yl)isoindoline-5-carboxamide]", "pIC50": "6.00 to 7.00"}
{"smiles": "O=C1CCC(N2Cc3cc(C(=O)NC4CC5(C4)CC(O)(c4ccc(F)cc4)C5)ccc3C2=O)C(=O)N1", "note": "(centres unmarked) [Example 225, 2-(2,6-dioxopiperidin-3-yl)-N-(6-(4-fluorophenyl)-6-hydroxyspiro[3.3]heptan-2-yl)-1-oxoisoindoline-5-carboxamide]", "pIC50": "< 6.00"}
{"smiles": "O=C1CCC(c2nc3ccc(C(=O)N4CCc5c(Cl)cccc5C4)cc3o2)C(=O)N1", "note": "(centres unmarked) [Example 181, 3-(6-(5-chloro-1,2,3,4-tetrahydroisoquinoline-2-carbonyl)benzo[d]oxazol-2-yl)piperidine-2,6-dione]", "pIC50": "< 6.00"}
